Measured values: patent US6737383B1, “Herbicidal oxadiazolidines” (priority 1999, dated 2004)

Experiments:
rape = assay: Test B pre/postemergence rape; format: in vivo, Brassica napus
Procedure, shortened: (§1)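 Herbicidal effect was estimated by eye on a ten-point control scale after plants spent twelve to sixteen days in a greenhouse following soil or foliar treatment. Foliar sprays targeted plants at one to four leaves; all doses were formulated in a non-phytotoxic solvent with surfactant.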

rice = assay: Test B flood test rice; format: in vivo, Oryza sativa
Procedure, shortened: (§2)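 Each value is a visual injury score relative to controls, with 10 meaning complete control and 0 no effect. Evaluation took place twelve to sixteen days after the 2-leaf-stage plants were treated and kept in the greenhouse.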

pigweed = assay: Test B pre/postemergence pigweed; format: in vivo, Amaranthus retroflexus
Procedure, shortened: as §1

purple nutsedge = assay: Test B pre/postemergence purple nutsedge; format: in vivo, Cyperus rotundus
Procedure, shortened: as §1

surinam grass = assay: Test B pre/postemergence surinam grass; format: in vivo, Brachiaria decumbens
Procedure, shortened: as §1

sugar beet = assay: Test B pre/postemergence sugar beet; format: in vivo, Beta vulgaris
Procedure, shortened: as §1

corn = assay: Test B pre/postemergence corn; format: in vivo, Zea mays
Procedure, shortened: as §1

wheat = assay: Test B pre/postemergence wheat; format: in vivo, Triticum aestivum
Procedure, shortened: as §1

morningglory = assay: Test B pre/postemergence morningglory; format: in vivo, Ipomoea hederacea
Procedure, shortened: as §1

wild oat = assay: Test B pre/postemergence wild oat; format: in vivo, Avena fatua
Procedure, shortened: as §1

bamyardgrass = assay: Test B flood test barnyardgrass; format: in vivo, Echinochloa crus-galli
Procedure, shortened: as §2

bedstraw = assay: Test B pre/postemergence bedstraw; format: in vivo, Galium aparine
Procedure, shortened: as §1

crabgrass = assay: Test B pre/postemergence crabgrass; format: in vivo, Digitaria sanguinalis
Procedure, shortened: as §1

blackgrass = assay: Test B pre/postemergence blackgrass; format: in vivo, Alopecurus myosuroides
Procedure, shortened: as §1

cocklebur = assay: Test B pre/postemergence cocklebur; format: in vivo, Xanthium strumarium
Procedure, shortened: as §1

giant foxtail = assay: Test B pre/postemergence giant foxtail; format: in vivo, Setaria faberii
Procedure, shortened: as §1

[1] = Postemergence, Rate 125 g/ha, scale of 0 to 10 where 0 is no effect and 10 is complete control
[2] = Postemergence, Rate 250 g/ha, scale of 0 to 10, 0 is no effect, 10 is complete control
[3] = Postemergence, Rate 500 g/ha, scale of 0 to 10 where 0 is no effect and 10 is complete control
[4] = Postemergence, Rate 1000 g/ha, scale 0 to 10 (0 no effect, 10 complete control)
[5] = Preemergence, Rate 125 g/ha, scale of 0 to 10 where 0 is no effect and 10 is complete control
[6] = Preemergence, Rate 500 g/ha, scale of 0 to 10 where 0 is no effect and 10 is complete control
[7] = Rate 1000 g/ha, Preemergence, scale 0 to 10 (0 no effect, 10 complete control)
[8] = Pre-emergence, Rate 1000 g/ha, scale 0 to 10 (0 no effect, 10 complete control)
[9] = Rate 125 g/ha, under heading Pre-emergence, flood test species, visual evaluation after twelve to sixteen days
[10] = Rate 250 g/ha, Pre-emergence (flood test species), scale 0 to 10, 0 is no effect, 10 is complete control
[11] = Rate 500 g/ha, Pre-emergence section of Table B, 0 to 10 scale (0 no effect, 10 complete control)

## CCOP(=O)(Cn1c(=O)on(C(=O)N(c2ccc(F)cc2)C(C)C)c1=O)OCC [Compound 587]
rape; [1]
  Plant response rating, Rape: 0
rape; [2]
  Rape plant response rating: 0
rape; [3]
  Plant response rating, Rape: 0
rape; [4]
  Rape plant response rating: 0
rape; [5]
  Rape plant response rating: 0
rape; [6]
  Rape plant response rating: 1
rape; [7]
  Plant response rating, Rape: 2
rice; [8]
  Rice plant response rating: 0
rice; [9]
  Rice plant response rating (0 to 10 scale, 0 is no effect, 10 is complete control): 0
rice; [10]
  Rice plant response rating: 0
rice; [11]
  Rice plant response rating: 0
pigweed; [1]
  Plant response rating, Redroot pigweed: 0
pigweed; [2]
  Redroot pigweed plant response rating: 0
pigweed; [3]
  Plant response rating, Redroot pigweed: 0
pigweed; [4]
  Redroot pigweed plant response rating: 0
pigweed; [5]
  Redroot pigweed plant response rating: 0
pigweed; [6]
  Redroot pigweed plant response rating: 2
pigweed; [7]
  Plant response rating, Redroot pigweed: 3
Purple nutsedge; [1]
  Plant response rating, Nutsedge: 0
Purple nutsedge; [2]
  Nutsedge plant response rating: 0
Purple nutsedge; [3]
  Plant response rating, Nutsedge: 0
Purple nutsedge; [4]
  Nutsedge plant response rating: 0
Purple nutsedge; [5]
  Nutsedge plant response rating: 0
Purple nutsedge; [6]
  Nutsedge plant response rating: 0
Purple nutsedge; [7]
  Plant response rating, Nutsedge: 0
Surinam grass; [1]
  Plant response rating, B. signalgrass: 0
Surinam grass; [2]
  B. signalgrass plant response rating: 0
Surinam grass; [3]
  Plant response rating, B. signalgrass: 0
Surinam grass; [4]
  B. signalgrass plant response rating: 5
Surinam grass; [5]
  B. signalgrass plant response rating: 0
Surinam grass; Preemergence, Rate 250 g/ha
  B. signalgrass plant response rating (0 to 10 scale, 0 is no effect, 10 is complete control): 5
Surinam grass; [6]
  B. signalgrass plant response rating: 7
Surinam grass; [7]
  Plant response rating, B. signalgrass: 10
Sugar beet; [1]
  Plant response rating, Sugarbeets: 0
Sugar beet; [2]
  Sugarbeets plant response rating: 0
Sugar beet; [3]
  Plant response rating, Sugarbeets: 0
Sugar beet; [4]
  Sugarbeets plant response rating: 0
Sugar beet; [5]
  Sugarbeets plant response rating: 0
Sugar beet; [6]
  Sugarbeets plant response rating: 0
Sugar beet; [7]
  Plant response rating, Sugarbeets: 3
corn; [1]
  Plant response rating, Corn: 0
corn; [2]
  Corn plant response rating: 0
corn; [3]
  Plant response rating, Corn: 0
corn; [4]
  Corn plant response rating: 0
corn; [5]
  Corn plant response rating: 0
corn; Preemergence, Rate 250 g/ha
  Corn plant response rating (0 to 10 scale): 0
corn; [6]
  Corn plant response rating: 0
corn; [7]
  Plant response rating, Corn: 4
wheat; [1]
  Plant response rating, Wheat: 0
wheat; [2]
  Wheat plant response rating: 0
wheat; [3]
  Plant response rating, Wheat: 0
wheat; [4]
  Wheat plant response rating: 3
wheat; [5]
  Wheat plant response rating: 0
wheat; [6]
  Wheat plant response rating: 3
wheat; [7]
  Plant response rating, Wheat: 7
morningglory; [1]
  Plant response rating, Morningglory: 4
morningglory; [2]
  Morningglory plant response rating: 6
morningglory; [3]
  Plant response rating, Morningglory: 7
morningglory; [4]
  Morningglory plant response rating: 9
morningglory; [5]
  Morningglory plant response rating: 0
morningglory; [6]
  Morningglory plant response rating: 0
morningglory; [7]
  Plant response rating, Morningglory: 3
Wild oat; [1]
  Plant response rating, Wild oats: 0
Wild oat; [2]
  Wild oats plant response rating: 0
Wild oat; [3]
  Plant response rating, Wild oats: 0
Wild oat; [4]
  Wild oats plant response rating: 0
Wild oat; [5]
  Wild oats plant response rating: 2
Wild oat; [6]
  Wild oats plant response rating: 9
Wild oat; [7]
  Plant response rating, Wild oats: 10
bamyardgrass; [8]
  Barnyardgrass plant response rating: 0
bamyardgrass; [9]
  Barnyardgrass plant response rating (0 to 10 scale, 0 is no effect, 10 is complete control): 0
bamyardgrass; [10]
  Barnyardgrass plant response rating: 0
bamyardgrass; [11]
  Barnyardgrass plant response rating: 0
bedstraw; [3]
  Plant response rating, Bedstraw: 3
bedstraw; [4]
  Bedstraw plant response rating: 7
bedstraw; [5]
  Bedstraw plant response rating: 0
bedstraw; [6]
  Bedstraw plant response rating: 2
bedstraw; [7]
  Plant response rating, Bedstraw: 3
crabgrass; [1]
  Plant response rating, Crabgrass: 0
crabgrass; [3]
  Plant response rating, Crabgrass: 2
crabgrass; [4]
  Crabgrass plant response rating: 3
crabgrass; [5]
  Crabgrass plant response rating: 6
crabgrass; [6]
  Crabgrass plant response rating: 9
crabgrass; [7]
  Plant response rating, Crabgrass: 10
blackgrass; [1]
  Plant response rating, Blackgrass: 3
blackgrass; [2]
  Blackgrass plant response rating: 3
blackgrass; [3]
  Plant response rating, Blackgrass: 6
blackgrass; [5]
  Blackgrass plant response rating: 3
blackgrass; Preemergence, Rate 250 g/ha
  Blackgrass plant response rating (0 to 10 scale): 6
blackgrass; [6]
  Blackgrass plant response rating: 8
blackgrass; [7]
  Plant response rating, Blackgrass: 10
cocklebur; [1]
  Plant response rating, Cocklebur: 0
cocklebur; [2]
  Cocklebur plant response rating: 0
cocklebur; [3]
  Plant response rating, Cocklebur: 0
cocklebur; [4]
  Cocklebur plant response rating: 0
cocklebur; [5]
  Cocklebur plant response rating: 0
cocklebur; Preemergence, Rate 250 g/ha
  Cocklebur plant response rating (0 to 10 scale): 0
cocklebur; [6]
  Cocklebur plant response rating: 0
cocklebur; [7]
  Plant response rating, Cocklebur: 0
Giant foxtail; [1]
  Plant response rating, Giant foxtail: 0
Giant foxtail; [2]
  Giant foxtail plant response rating: 0
Giant foxtail; [3]
  Plant response rating, Giant foxtail: 2
Giant foxtail; [4]
  Giant foxtail plant response rating: 4
Giant foxtail; [5]
  Giant foxtail plant response rating: 8
Giant foxtail; [6]
  Giant foxtail plant response rating: 9
Giant foxtail; [7]
  Plant response rating, Giant foxtail: 10
